Assays:
[1] = tested on: mTORC1 signaling in TRI102 cells; experiment: mTORC1 signaling Western blot in TRI102 cells; format: cell-based, human; conditions: replete and serum-starved conditions, 90 min, dose-dependent
Experimental: MCF-7 cells were serum-starved for 16 h and treated with compound for 90 min before cell lysis and Western blot analysis. For insulin-stimulated cells, 100 nM insulin was added 30 min before cell lysis. For EGF-stimulated cells, 100 ng mL^−1 EGF was added 10 min before cell lysis. c Rap1 activity was detected in lysates loaded in vitro with either GDP or GTPγS and treated with NR1 at the indicated concentrations. This was followed by a subsequent pulldown of GST-RalGDS-RBD. Bound Rap1 was detected by Western blot. d Evaluation of NR1 in a LAM patient-derived cell line (TRI102) under replete and serum-starved conditions. For replete conditions, TRI102 cells were treated for 90 min with compound in DMEM + 10% FBS. For serum-starved conditions, TRI102 cells were serum-starved 16 h and then treated for 90 min with compound prior to cell lysis and Western blot analysis. e HEK293 cells co-transfected with the indicated mTOR constructs and HA-GST-S6K1 were starved of amino acids or treated with NR1. To assess mTORC1 activity, an HA IP was performed and Western blots probed for ^T389pS6K1. f Chronic treatment of PC3 cells with NR1 to evaluate the inhibition of mTORC1 (using ^T389pS6K1) versus mTORC2 (using ^S473pAKT). PC3 cells were treated with compound under replete conditions for 24 h prior to cell lysis and Western blot analysis. […]

[2] = tested on: S473pAKT (mTORC2 activity) in MCF-7 cells; experiment: S473pAKT AlphaLISA assay in MCF-7 cells; format: cell-based, human; conditions: MCF-7, replete conditions, 120 min, dose-dependent
Description: We next evaluated the activity of NR1 in cell culture. Selective inhibition of mTORC1 in cells produces a specific signaling signature characterized by a reduction in phosphorylation of the mTORC1 substrates S6K1 and 4E-BP1 and increase in phosphorylation of AKT, catalyzed by mTORC2. This distinctive profile reflects the relief of a feedback loop where active S6K1 directly phosphorylates IRS1, resulting in the degradation of IRS1 and subsequent reduction of growth factor signaling from RTKs to downstream effectors such as AKT[1]. Conversely, reduction in ^T389pS6K1 is expected to lead to an increase in ^S473pAKT levels. We used AlphaLISA assays to detect ^T389pS6K1 and ^S473pAKT in MCF-7 cells. […]
Evaluation of NR1 in MCF-7 under replete conditions. […] The indicated phosphoproteins were detected using AlphaLISA assays for T389pS6K1 (reflecting mTORC1 activity) and S473pAKT (reflecting mTORC2 activity). […]
The compounds were added to the kinase reaction mixture by Acoustic technology (Echo550; nanoliter range) and incubated for 20 min at room temperature before the addition of 100 µM 33P-ATP. The reaction was incubated for 2 h at room temperature, and kinase activity was detected by a P81 filter- […]
AlphaLISA assays. […] The AlphaLISA protocol was performed in 384-well plates as instructed by Perkin Elmer, and the plates were read on an EnVision plate reader. […]

Structure (SMILES): CN(C)C(=O)c1ccc(Cn2c(C(=O)O)cc3c(Br)cc(Sc4ccc(Cl)c(Cl)c4)cc32)cc1 [NR1, 4-bromo-6-(3,4-dichlorophenylthio)-1-(4-(dimethylcarbamoyl)benzyl)-1H-indole-2-carboxylic acid]
- mTORC1 signaling in TRI102 cells [1]: inhibits mTORC1 signaling
- phosphorylation of S473pAKT [2]: increased the phosphorylation

Source: article PMC5803267, “A small molecule inhibitor of Rheb selectively targets mTORC1 signaling” (Nature Communications, 2018)
